Reference: patent US20240101592A1, “COMPOSITIONS AND METHODS FOR TREATING CNS DISORDERS” (Sage Therapeutics, Inc., priority 2020, published 2024)

These compounds were tested against GABAA receptor ([35S]-TBPS binding, rat brain cortical membranes) (assay: Steroid inhibition of [35S]-TBPS binding). Settings: 3 nM [35S]-TBPS, in the presence of 5 mM GABA, 90 min at room temp.
Description: Steroid Inhibition of TBPS Binding
[^35S]-t-Butylbicyclophosphorothionate (TBPS) binding assays using rat brain cortical membranes in the presence of 5 mM GABA has been described (Gee et al, J. Pharmacol. Exp. Ther. 1987, 241, 346-353; Hawkinson et al, Mol. Pharmacol. 1994, 46, 977-985; Lewin, A. H et al., Mol. Pharmacol. 1989, 35, 189-194).
Briefly, cortices are rapidly removed following decapitation of carbon dioxide-anesthetized Sprague-Dawley rats (200-250 g). The cortices are homogenized in 10 volumes of ice-cold 0.32 M sucrose using a glass/teflon homogenizer and centrifuged at 1500×g for 10 min at 4° C. The resultant supernatants are centrifuged at 10,000×g for 20 min at 4° C. to obtain the P2 pellets. The P2 pellets are resuspended in 200 mM NaCl/50 mM Na—K phosphate pH 7.4 buffer and centrifuged at 10,000×g for 10 min at 4° C. This washing procedure is repeated twice and the pellets are resuspended in 10 volumes of buffer. Aliquots ([…]) of the membrane suspensions are incubated with 3 nM [^35S]-TBPS and […] aliquots of test drug dissolved in dimethyl sulfoxide (DMSO) (final 0.5%) in the presence of 5 mM GABA. The incubation is brought to a final volume of 1.0 mL with buffer. Nonspecific binding is determined in the presence of […] and ranged from 15 to 25%. Following a 90 min incubation at room temp, the assays are terminated by filtration through glass fiber filters (Schleicher and Schuell No. 32) using a cell harvester (Brandel) and rinsed three times with ice-cold buffer. Filter bound radioactivity is measured by liquid scintillation spectrometry. Non-linear curve fitting of the overall data for each drug averaged for each concentration is done using Prism (GraphPad). […] The concentration of test compound producing 50% inhibition (IC50) of specific binding and the maximal extent of inhibition (Imax) are determined for the individual experiments with the same model used for the overall data and then the means±SEM.s of the individual experiments are calculated.
Various compounds are or can be screened to determine their potential as modulators of [^35S]-TBPS binding in vitro. These assays are or can be performed in accordance with the above.

`C[C@@]1(O)CC[C@H]2[C@H](CC[C@@H]3[C@@H]2CC[C@@]2(C)[C@H]3[C@@H]3C[C@@H]3[C@@H]2[C@@](C)(O)Cn2cc(C#N)cn2)C1` (single isomer, unassigned) [Compound No. 13] and `C[C@@]1(O)CC[C@H]2[C@H](CC[C@@H]3[C@@H]2CC[C@@]2(C)[C@H]3[C@@H]3C[C@@H]3[C@@H]2[C@](C)(O)Cn2cc(C#N)cn2)C1` (single isomer, unassigned) [Compound No. 12] cannot be ordered by IC50: less than 100 nM for the first, less than 100 nM for the second.

`C[C@@]1(O)CC[C@@]2(C)[C@@H](CC[C@@H]3[C@@H]2CC[C@@]24C[C@@]32CC[C@@H]4C(=O)Cn2cc(C#N)cn2)C1` [Compound No. 23, 1-(2-((3R,5S,8R,9S,10S,13S,14S,17S)-3-hydroxy-3,10-dimethyltetradecahydro-1H-13,14-methanocyclopenta[a]phenanthren-17-yl)-2-oxoethyl)-1H-pyrazole-4-carbonitrile] and `C[C@@]1(O)CC[C@H]2[C@H](CC[C@@H]3[C@@H]2CC[C@@]2(C)[C@H]3[C@@H]3C[C@@H]3C[C@@H]2C(=O)Cn2cc(C#N)cn2)C1` [Compound No. 8, 1-(2-((1S,2aR,3aR,3bS,3cR,5aR,7R,9aS,9bR,11aS)-7-hydroxy-7,11a-dimethyloctadecahydro-1H-cyclopropa[c]chrysen-1-yl)-2-oxoethyl)-1H-pyrazole-4-carbonitrile] cannot be ordered by IC50: less than 100 nM for the first, less than 100 nM for the second.

`C[C@@]1(O)CC[C@H]2[C@H](CC[C@@H]3[C@@H]2CC[C@]2(C)[C@@H]([C@H]4C[C@@H]4Cn4cc(C#N)cn4)CC[C@@H]32)C1` [Compound No. 24, 1-(((1S,2R)-2-((3R,5R,8R,9R,10S,13S,14S,17R)-3-hydroxy-3,13-dimethylhexadecahydro-1H-cyclopenta[a]phenanthren-17-yl)cyclopropyl)methyl)-1H-pyrazole-4-carbonitrile] and `C[C@@]1(O)CC[C@H]2[C@H](CC[C@@H]3[C@@H]2CC[C@]2(C)[C@@H]([C@@H]4C[C@H]4Cn4cc(C#N)cn4)CC[C@@H]32)C1` [Compound No. 25, 1-(((1R,2S)-2-((3R,5R,8R,9R,10S,13S,14S,17R)-3-hydroxy-3,13-dimethylhexadecahydro-1H-cyclopenta[a]phenanthren-17-yl)cyclopropyl)methyl)-1H-pyrazole-4-carbonitrile] cannot be ordered by IC50: less than 100 nM for the first, less than 100 nM for the second.

`C[C@@H](Cn1cc(C#N)cn1)[C@H]1[C@@H]2C[C@@H]2C[C@H]2[C@@H]3CC[C@@H]4C[C@](C)(O)CC[C@@H]4[C@H]3CC[C@]12C` [Compound No. 4, 1-((R)-2-((2R,4aS,4bR,6aS,7R,7aR,8aR,9aS,9bR,11aR)-2-hydroxy-2,6a-dimethyloctadecahydro-1H-cyclopropa[b]chrysen-7-yl)propyl)-1H-pyrazole-4-carbonitrile] and `C[C@H](Cn1cc(C#N)cn1)[C@H]1[C@@H]2C[C@@H]2C[C@H]2[C@@H]3CC[C@@H]4C[C@](C)(O)CC[C@@H]4[C@H]3CC[C@]12C` [Compound No. 5, 1-((S)-2-((2R,4aS,4bR,6aS,7R,7aR,8aR,9aS,9bR,11aR)-2-hydroxy-2,6a-dimethyloctadecahydro-1H-cyclopropa[b]chrysen-7-yl)propyl)-1H-pyrazole-4-carbonitrile] cannot be ordered by IC50: less than 100 nM for the first, less than 100 nM for the second.

First: Cc1nnnn1C[C@@H]1C[C@H]1[C@H]1CC[C@H]2[C@@H]3CC[C@@H]4C[C@](C)(O)CC[C@@H]4[C@H]3CC[C@]12C [Compound No. 27, (3R,5R,8R,9R,10S,13S,14S,17R)-3,13-dimethyl-17-((1S,2R)-2-((5-methyl-1H-tetrazol-1-yl)methyl)cyclopropyl)hexadecahydro-1H-cyclopenta[a]phenanthren-3-ol]
Second: Cc1nnn(C[C@@H]2C[C@H]2[C@H]2CC[C@H]3[C@@H]4CC[C@@H]5C[C@](C)(O)CC[C@@H]5[C@H]4CC[C@]23C)n1 [Compound No. 28, (3R,5R,8R,9R,10S,13S,14S,17R)-3,13-dimethyl-17-((1S,2R)-2-((5-methyl-2H-tetrazol-2-yl)methyl)cyclopropyl)hexadecahydro-1H-cyclopenta[a]phenanthren-3-ol]
The IC50 of the first is higher: 100 to 1000 nM for the first, less than 100 nM for the second.

`CC(Cn1cc(C#N)cn1)[C@H]1[C@H]2C[C@H]2[C@H]2[C@@H]3CC[C@@H]4C[C@](C)(O)CC[C@@H]4[C@H]3CC[C@@]21C` (single isomer, unassigned) [Compound No. 11] and `C[C@@]1(O)CC[C@H]2[C@H](CC[C@@H]3[C@@H]2CC[C@@]2(C)[C@H]3C[C@H]3C[C@H]3[C@@H]2[C@@](C)(O)Cn2cc(C#N)cn2)C1` [Compound No. 3] cannot be ordered by IC50: less than 100 nM for the first, less than 100 nM for the second.

`CCC[C@@]1(O)CC[C@H]2C(CC[C@@H]3[C@@H]2CC[C@@]2(C)[C@H]3[C@@H]3C[C@@H]3[C@@H]2C(=O)Nc2ccc(C#N)cn2)C1` (stereo in doubt) [Compound No. 15, (2R,4aS,4bR,6aS,7S,7aS,8aR,8bR,8cR,10aR)-N-(5-cyanopyridin-2-yl)-2-hydroxy-6a-methyl-2-propyloctadecahydrocyclopropa[4,5]cyclopenta[1,2-a]phenanthrene-7-carboxamide] and `COC[C@@]1(O)CC[C@H]2[C@@H](CC[C@@H]3[C@@H]2CC[C@@]2(C)[C@H]3[C@@H]3C[C@@H]3[C@@H]2C(C)=O)C1` [Compound No. 16, 1-((2R,4aS,4bR,6aS,7S,7aS,8aR,8bR,8cR,10aS)-2-hydroxy-2-(methoxymethyl)-6a-methyloctadecahydrocyclopropa[4,5]cyclopenta[1,2-a]phenanthren-7-yl)ethanone] cannot be ordered by IC50: less than 100 nM for the first, less than 100 nM for the second.

`COC[C@@]1(O)CC[C@H]2[C@@H](CC[C@@H]3[C@@H]2CC[C@@]2(C)[C@H]3[C@@H]3C[C@@H]3[C@@H]2[C@H](C)Cn2nnc(C)n2)C1` [Compound No. 17, (2R,4aS,4bR,6aS,7R,7aS,8aR,8bR,8cR,10aS)-2-(methoxymethyl)-6a-methyl-7-((S)-1-(5-methyl-2H-tetrazol-2-yl)propan-2-yl)octadecahydrocyclopropa[4,5]cyclopenta[1,2-a]phenanthren-2-ol] and `COC[C@@]1(O)CC[C@H]2[C@@H](CC[C@@H]3[C@@H]2CC[C@@]2(C)[C@H]3[C@@H]3C[C@@H]3[C@@H]2[C@@H](C)Cn2nnc(C)n2)C1` [Compound No. 18, (2R,4aS,4bR,6aS,7R,7aS,8aR,8bR,8cR,10aS)-2-(methoxymethyl)-6a-methyl-7-((R)-1-(5-methyl-2H-tetrazol-2-yl)propan-2-yl)octadecahydrocyclopropa[4,5]cyclopenta[1,2-a]phenanthren-2-ol] fall in the same range of IC50: 100 to 1000 nM for the first, 100 to 1000 nM for the second.

`CC(=O)[C@H]1[C@H]2C[C@H]2[C@H]2[C@@H]3CC[C@@H]4C[C@](C)(O)CC[C@@H]4[C@H]3CC[C@@]21C` [Compound No. 9, 1-((2R,4aS,4bR,6aS,7S,7aS,8aR,8bR,8cR,10aR)-2-hydroxy-2,6a-dimethyloctadecahydrocyclopropa[4,5]cyclopenta[1,2-a]phenanthren-7-yl)ethanone] and `CC(Cn1cc(C#N)cn1)[C@H]1[C@H]2C[C@H]2[C@H]2[C@@H]3CC[C@@H]4C[C@](C)(O)CC[C@@H]4[C@H]3CC[C@@]21C` (single isomer, unassigned) [Compound No. 10] cannot be ordered by IC50: less than 100 nM for the first, less than 100 nM for the second.

First: C[C@@]1(O)CC[C@H]2[C@H](CC[C@@H]3[C@@H]2CC[C@@]2(C)[C@H]3C[C@@H]3C[C@@H]3[C@@H]2C(=O)Cn2cc(C#N)cn2)C1 [Compound No. 6, 1-(2-((2R,4aS,4bR,6aS,7S,7aS,8aS,9aS,9bR,11aR)-2-hydroxy-2,6a-dimethyloctadecahydro-1H-cyclopropa[b]chrysen-7-yl)-2-oxoethyl)-1H-pyrazole-4-carbonitrile]
Second: CCC[C@@]1(O)CC[C@@]2(C)[C@@H](CC[C@H]3[C@@H]4[C@@H]5C[C@@H]5[C@H]([C@@](C)(O)Cn5cc(C#N)cn5)[C@@]4(C)CC[C@@H]32)C1 [Compound No. 14, 1-((R)-2-hydroxy-2-((2R,4aS,4bS,6aS,7S,7aS,8aR,8bS,8cR,10aS)-2-hydroxy-4a,6a-dimethyl-2-propyloctadecahydrocyclopropa[4,5]cyclopenta[1,2-a]phenanthren-7-yl)propyl)-1H-pyrazole-4-carbonitrile]
The IC50 of the first is lower: less than 100 nM for the first, greater than 1000 nM for the second.
